Results published in patent US20090176776A1, “SMALL MOLECULE INHIBITORS OF HIV-1 CAPSID ASSEMBLY” (UNIVERSITY OF ALABAMA AT BIRMINGHAM, priority 2005, published 2009).

Assays:
[1] = MTS score (Table 1; method not described); assay type: cell-based; conditions: for MTS AVG 4 (No Effect): average of the MTS scores at 10, 30 and 100 μM; for MTS 10 μM: score at nominal 10 μM; for MTS 10 μM / MTS 30 μM / MTS 100 μM: 4 = No Effect; for MTS 30 μM: score at nominal 30 μM; for MTS 100 μM: score at nominal 100 μM
[2] = molecular target: T1, recombinant HIV-1 capsid protein (CA) (Human immunodeficiency virus type 1 group M subtype B, UniProt P12493); assay: Turbidity based HIV-1 capsid assembly assay; assay type: biochemical; conditions: initial assembly rate by turbidity; twofold dilutions over a 128 fold range; 30 μM CA, 2.25 M NaCl
T1 construct: recombinant HIV-1 capsid protein (CA); made in house
Procedure: The kinetics can be followed by monitoring the increase of turbidity using a spectrophotometer. The IC50 of the chemical compound tested is determined by titration. As the C-domain inhibits capsid assembly by forming CA-C-domain heterodimers, the effect of added C-terminal domain on the rate of assembly was evaluated by plotting the rate of assembly versus C-terminal domain concentration.
Soluble HIV-1 capsid protein can be triggered to assemble into tubes similar in diameter and morphology to intact cores by dilution into high iconic strength buffer. The kinetics of assembly can be followed by monitoring the increase in turbidity using a spectrophotometer (Lanham et al., J. Virol., 76:6900, 2002). This assembly assay was adapted to a 96-well, microplate format to allow for medium-throughput screening of compounds by measuring turbidity in a Nepeloskan Ascent plate reader (Thermo Electron Corp., UK). A DIVERSet™ library of 10,000 low molecular weight, “drug-like” compounds was purchased from ChemBridge Corp. (San Diego, Calif.). This library was selected for its potential bioavailability and application based on a pharmacophore diversity analysis. The average molecular weight of the compounds is 347 g/mol, the range being 200-596 g/mol. The compounds came plated in 96-well plates and solubilized in DMSO at 5 mgs/mL.
Turbidity based assay. A 1.5 μL aliquot of compound was diluted 90-fold into 50 mM Na2HPO4, […] buffer, pH 8 in an optically clear 96-well plate. The plate containing compounds and salt was read to check for compound solubility and to serve as a background reading for the assay. To initiate the assembly reaction, 15 μL of […] stock (in 50 mM Na2HPO4 pH 8) of recombinant HIV-1 capsid protein (CA), purified as described (Lanman et al., J. Virol., 76:6900, 2002), was added to each well of the 96-well plate using a multi-channel pipettor. […] Furthermore, the halftime of the assembly reaction is ˜5 minutes so reading the plate in thirds prevented loss of initial rate data. Therefore, CA was added to the first 4 lanes, the reactions followed for ten minutes, reading was paused, CA was then added to the next four lanes and the process repeated. Instrument settings are as follows: PMT gain of 500 V, lamp at 10V, and integration time of 60 ms. The data were exported to a custom designed Excel spreadsheet that allowed simultaneous plotting of kinetic curves.
Recombinant CA protein was purified as previously described and stored at 300 μM at −80° C. A turbidity based assembly assay, described above, was adapted to a 96-well, microplate format to allow for medium-throughput screening of compounds in a Nepheloskan Ascent plate reader (Thermo Electron Corp., UK). A 1.5 μL aliquot of compound or DMSO was diluted 90-fold into 50 mM Na2HPO4, 2.25 M NaCl buffer, pH 8 in an optically clear 96-well plate. To initiate the assembly reaction, 15 μL of the 300 μM stock (in 50 mM Na2HPO4 pH 8) of recombinant HIV-1 capsid protein (CA), was added to each well of the 96-well plate using a multi-channel pipettor.

HIV-1YU2 = assay: Anti-HIV assay (multiple round), luciferase expression in Luc-M7 cells; assay type: cell-based; conditions: Luc-M7 cells infected with HIV-1YU2, 6 days, Bright-Glo
Procedure: (§1) Anti-HIV Assays (Multiple Round). The inhibitory effects of the tested compounds on HIV-1YU2 replication were determined by the level of luciferase expression after 6 days of infection using Bright-Glo assay (Promega). An amount of 1.5×10^4 Luc-M7 (a gift from Ned Landau) cells per ml were infected with HIV-1YU2 at a multiplicity of infection (MOI) of 3. The HIV-1 infected ([…] compound) or mock-infected (0-300 μM compound) Luc-M7 cells were placed in 96-well culture plates (100 μl/well) with 100 μl of various concentrations of the compounds with 20 μg/ml DEAE Dextran in triplicate and incubated at 37° C. under 5% CO2 at 100% humidity. After 6 days, cell viability was quantified by Cell-Titer Glo assay (Promega). […] On day 5 cell viability was determined in the mock-infected cells. FIGS. 12-18 show the anti-HIV assays for the examples of chemical compounds used according to the invention. After in-vitro assay, the chemical compounds in FIGS. 12-18 were selected for screening for cell viability and toxicity. Jurkat cells assay was used as screening assay. […] After five days, GFP expression was read. Cell viability was monitored with Alamar Blue assay. Luc M7 assay was designed to measure inhibitory activity of the chemical compounds to viral replication. After infection of cells with YU2 virus, plate cells in 96-well plate in the presence of six concentration of compounds in DMSO. At day 6, the number of cells in wells were read with Cell Titer Glo kit or by counting the number of cells infected with Bright Glo kit. 293T cells assay was designed to determine the toxicity. 293T cells were transfected with NL43. After four hours, transfected cells were plated in 96-well plate in DMSO and 2 μM Indinavir. 72 hours later, viral supernatant was collected and plated on J[…].

Luc-M7 cells = assay: Cell viability of Luc-M7 cells (Cell-Titer Glo); assay type: cell-based; design: unit: μM; conditions: mock-infected Luc-M7 cells, 6 days
Procedure: as §1

Compound | MTS AVG 4 (No Effect) [1] | MTS 10 μM [1] | MTS 30 μM [1] | MTS 100 μM [1] | IC50 [2] [µM] | IC50 (HIV-1YU2) [µM] | TC50 (Luc-M7 cells)
Cc1ccc(OCC(=O)NN=Cc2ccncc2)cc1 [Compound 56] | 3.333 | 4 | 3 | 3 | 40 | – | –
O=C(NN=Cc1c(Br)cc(Br)c(O)c1Br)c1ccccc1[N+](=O)[O-] [Compound 23] | 3.667 | 4 | 4 | 3 | 12 | – | –
CC(C)(C)c1ccc(OCC(=O)NN=Cc2ccc(O)c([N+](=O)[O-])c2)cc1 [Compound 38] | 3.333 | 4 | 3 | 3 | 35 | – | –
O=C(COc1ccc2ccccc2c1)NN=Cc1cc(O)c(O)c(Br)c1 [Compound 53] | 2.000 | 4 | 1 | 1 | 33 | – | –
Nc1nc(-c2ccccc2Cl)cs1 [Compound 15] | 3.000 | 4 | 3 | 2 | 60 | 19.8 | 58.9
Cc1cc(F)ccc1NCc1ccccn1 [Compound 16] | 3.000 | 4 | 4 | 1 | 95 | 17.8 | 66.5
Oc1ccc(C=NNc2cc(N3CCOCC3)nc(N3CCOCC3)n2)c(O)c1 [Compound 9] | 2.000 | 4 | 1 | 1 | 7 | – | –
O=C(O)c1ccc2c(c1)C1C=CCC1C(c1cccc([N+](=O)[O-])c1)N2 (stereo not drawn) [Compound 59] | 4.000 | 4 | 4 | 4 | 22 | 4.5 | 84.1
CC(=NNC(=O)C(O)c1ccccc1)c1ccc2c(c1)CCCC2 (stereo not drawn) [Compound 6] | 3.000 | 4 | 3 | 2 | 9 | 15.4 | 36.8
Cc1ccc(NCC(=O)NN=Cc2c(Br)cc(Br)c(O)c2Br)cc1 [Compound 17] | 2.333 | 4 | 1 | 2 | 11 | – | –
CCOC(=O)c1c(N2C(=O)C=CC2=O)sc2c1CCCC2 [Compound 8] | 3.667 | 4 | 4 | 3 | 4 | 13.3 | 27.7
COc1ccc(OCC(=O)NN=Cc2cc(O)c(O)c(Br)c2)c(Br)c1 [Compound 71] | 2.333 | 4 | 2 | 1 | 24 | – | –
Cc1ccc(C(C)C)c(OCC(=O)NN=Cc2ccc(C(=O)O)cc2)c1 [Compound 65] | 3.667 | 4 | 4 | 3 | 14 | – | –
COc1c(O)ccc(C=NNC(=O)COc2cccc(C)c2)c1[N+](=O)[O-] [Compound 39] | 2.333 | 4 | 2 | 1 | 28 | – | –
O=C1Nc2c(Br)cc(Br)cc2C1=NNC(=O)C(O)c1ccccc1 (stereo not drawn) [Compound 50] | 2.333 | 4 | 2 | 1 | 15 | – | –
Cc1ccc(OCC(=O)NN=Cc2c(Br)cc(Br)c(O)c2Br)cc1 [Compound 3] | 3.667 | 4 | 3 | 4 | 7 | – | –
O=C(O)c1ccc2c(c1)C1C=CCC1C(c1ccc([N+](=O)[O-])cc1)N2 (stereo not drawn) [Compound 41] | 3.667 | 4 | 4 | 3 | 18 | 2.1 | 65.8
O=C(NN=Cc1cc(Cl)cc([N+](=O)[O-])c1O)c1ccc2c(c1)OCO2 [Compound 37] | 2.000 | 4 | 1 | 1 | – | – | –
CC(C)(C)c1ccc(OCCN2CCOCC2)cc1 [Compound 60] | 3.333 | 4 | 4 | 2 | 75 | 6.98 | 125.3
